Experiments:
[1] = system: faecal microbiota; test: Faecal batch culture with antibiotics promoting CRE colonisation: 1H-NMR of nutrients and metabolites; format: cell-based, human; settings: 11 healthy donors, antibiotic at faecal concentration, 24 hours anaerobic
Experimental: (§1) The inventors performed faecal culture experiments to measure the effects of eight broad-spectrum antibiotics on the faecal microbiota collected from 11 healthy human donors. Faecal culture experiments were performed under anaerobic conditions using a complex gut growth medium that was designed to mimic the nutrients found in the human distal gut (McDonald, J. A. et al. Evaluation of microbial community reproducibility, stability and composition in a human distal gut chemostat model. J. Microbiol. Methods 95, 167-174 (2013)). […] Moon, Y. S., Chung, K. C. & Gill, M. A. Pharmacokinetics of meropenem in animals, healthy volunteers, and patients. Clin Infect Dis 24, S249-S255 (1997). Kager, L., Brismar, B., Malmborg, A. S. & Nord, C. E. Imipenem concentrations in colorectal surgery and impact on the colonic microflora. Antimicrob Agents Chemother 33, 204-8 (1989). Pletz, M. et al. Ertapenem pharmacokinetics and impact on intestinal microflora, in comparison to those of ceftriaxone, after multiple dosing in male and female volunteers. Antimicrob Agents Chemother 48, 3765-72 (2004). Nord, C. E., Brismar, B., Kasholm-Tengve, B. & Tunevall, G. Effect of piperacillin/tazobactam treatment on human bowel microflora. J Antimicrob Chemother 31, 61-5 (1993). […] Antimicrob Agents Chemother 63, 2244 (2019). Pessôa de Menezes e Silva, C H. Elaboration and evaluation of a new screening medium for detection and presumptive identification of extended-spectrum beta-lactamase-producing organisms (ESBL). Braz J Microbiol 31, 271-274 (2000). Brismar, B., Edlund, C., Malmborg, A. S. & Nord, C. […] Antimicrob Agents Chemother 34, 481-3 (1990)). Cultures were incubated anaerobically at 37° C. for 24 hours. Samples were analysed by ^1H-NMR spectroscopy (for nutrient and metabolite profiling) and […] rRNA gene sequencing with 16S rRNA gene qPCR (for bacterial composition and biomass) (McDonald, J. A. K. et a/. Inhibiting Growth of Clostridioides difficile by Restoring Valerate, Produced by the Intestinal Microbiota. Gastroenterology 155, 1495-1507 (2018)).
Supernatants were prepared from faeces by vortexing 300 mg of faeces in 900 μl of HPLC-grade water for 10 minutes at 3000 rpm followed by centrifugation at 17,000×g for 10 minutes at 4° C. Supernatants were prepared from faecal culture samples by centrifugation at 17,000×g for 10 minutes at 4° C. Supernatants were frozen at −80° C. until they were ready for analysis.
^1H-NMR spectroscopy was performed as previously described (McDonald, J. A. K. et al. Inhibiting Growth of Clostridioides difficile by Restoring Valerate, Produced by the Intestinal Microbiota. Gastroenterology 155, 1495-1507 (2018)). Briefly, sample supernatants were randomized and defrosted at room temperature for 1 hour. Sample supernatants were then centrifuged for 10 min at 17 000×g and 4° C. The pellet was discarded and 400 μl of supernatant was added to 250 μl NMR buffer (28.85 g Na2HPO4, 5.25 g NaH2PO4, 1 mM TSP, 3 mM NaN3, deuterium oxide to 1 L, pH 7.4). 600 μl of sample was used to fill each 5 mm NMR tube to be loaded into the SampleJet system.
^1H-NMR spectroscopy was performed using the Bruker AVANCE III HD 800 MHz spectrometer (Bruker Bio-Spin, Rheinstetten, Germany). 1D spectra (a standard NOESYGPPR1D pulse sequence (RD-90°-t1-90°-tm-90°-ACQ)) as well as 2D spectra (standard 2D JRESGPPRQF pulse sequence) were acquired. A recycle delay of 4 seconds and mixing time of 100 ms was used. The 90° pulse length was approximately 10 μs and 32 scans were recorded.
NMR spectra were imported into MATLAB r2019b (The Mathworks, USA) using an in-house script. Spectra were aligned and the water (4.6-5 ppm) and TSP (−0.2-0.2 ppm) peaks were cut. Compounds were identified by comparison to spectral databases in Chenomx NMR Suite (Chenomx, Canada). Representative peaks were integrated for quantification of compounds.

[2] = system: faecal microbiota; test: Faecal batch culture with antibiotics promoting CRE colonisation: 16S rRNA gene sequencing and qPCR; format: cell-based, human; settings: 11 healthy donors, antibiotic at faecal concentration, 24 hours anaerobic
Experimental: as §1

[3] = system: NDM-1 Enterobacter cloacae; test: Individual metabolite inhibition assay; format: cell-based; settings: LB pH 6.5, 16 hours anaerobic
Experimental: (§2) New Delhi Metallo-β-lactamase 1 (NDM-1) Escherichia coli, NDM-1 Klebsiella pneumoniae, and NDM-1 Enterobacter cloacae were isolated from patients with intestinal CRE colonisation from the Imperial College Healthcare NHS Trust via rectal swab (REC ref. 19/LO/0112). The species were assigned by matrix assisted laser desorption ionization-time of flight (MALDI-TOF) mass spectrometry and later confirmed with 16S rRNA gene sequencing. CRE status was determined using X-pert Carba-R PCR detection (Cepheid, Sunnyvale, CA, USA), (Otter, J. A. et al. Detecting carbapenemase-producing Enterobacterales (CPE): an evaluation of an enhanced CPE infection control and screening programme in acute care. J Antimicrob Chemother 75, 2670-2676 (2020)).
(§3) Each metabolite was tested individually in an inhibition assay against each CRE isolate. Each metabolite was tested at three concentrations: the low, average, and high concentrations that were measured in healthy faeces (from Table 1). LB was supplemented with each metabolite (at the three different concentrations) and compared to a no metabolite control. […] Overnight cultures of each CRE isolate were inoculated at 10^3 CFU/ml. Cultures were incubated anaerobically for 16 hours at 37° C. Growth was measured at OD600 after 16 hours of incubation. Growth of the CRE isolate in the presence of each metabolite was compared to the no metabolite control using a one-way ANOVA followed by Dunn's multiple comparison test.

[4] = system: NDM-1 Escherichia coli; test: Individual metabolite inhibition assay; format: cell-based; settings: LB pH 6.5, 16 hours anaerobic
Experimental: as §2, §3

[5] = system: NDM-1 Klebsiella pneumoniae; test: Individual metabolite inhibition assay; format: cell-based; settings: LB pH 6.5, 16 hours anaerobic
Experimental: as §2, §3

[6] = system: vancomycin-resistant E. faecium; test: VRE nutrient utilization protocol: carbon sources; format: cell-based, Enterococcus faecium; settings: aerobic; VRE minimal medium
Experimental: (§4) VRE minimal media consists of potassium phosphate monobasic (4 g/L), potassium phosphate dibasic (14 g/L), sodium citrate (1 g/L), magnesium sulphate (0.2 g/L), ammonium sulphate (2 g/L), adenosine (0.04 g/L), thymine (0.04 g/L), Kao and Michayluk vitamin solution [Sigma, K3129, 50× Stock](5×), glucose (1 g/L) and amino acid solution [Sigma, R7131, RPMI-1640, 50×](25×). If the study was performed under anaerobic conditions, fumarate (5.2 g/L) was added to increase growth of VRE strains. Carbon-free minimal media was prepared by leaving out glucose while nitrogen-free minimal media was prepared without the amino acid solution. Media was filter sterilized with a 0.22 micron filter and used immediately aerobically or degassed overnight if used anaerobically.
(§5) VRE strains were grown on R2A overnight before the cells were suspended in 0.9% saline to an OD of 0.38 (λ=595 nm). A 10% dilution of the cell suspension was prepared using VRE minimal media to achieve a final well OD of […] (λ=595 nm) greater than the sterile media OD. Both carbon and nitrogen source utilization were evaluated by adding the inoculated media and a filter-sterilised nutrient source solution into a well in a 1:1 ration to a final volume of 100 μL in aerobic tests and 200 μL in anaerobic tests. Carbon sources were tested individually and compared to a carbon-free control. To test nitrogen source utilization, a nitrogen source solution was prepared containing L-alanine (2 g/L), L-arginine (2.5 g/L, L-asparagine (0.71 g/L), L-aspartate (0.25 g/L), L-cysteine (0.625 g/L), L-glutamate (0.25 g/L), L-Glycine (0.125 g/L), L-histidine (0.1875 g/L), L-isoleucine (0.625 g/L), L-leucine (0.625 g/L), L-lysine HCl (0.5 g/L), L-methionine (0.1875 g/L), L-phenylalanine (0.1875 g/L), L-proline (0.25 g/L), L-serine (0.375 g/L), L-threonine (0.25 g/L), L-tryptophan (0.0625 g/L), L-tyrosine (0.29 g/L), L-valine (0.25 g/L), N-acetylglucosamine (2 g/L), and uracil (2.5 g/L). To test the strains' ability to utilize individual nitrogen sources, separate solutions were prepared eliminating one nitrogen source each. The change in growth compared to the complete nitrogen source solution control was used to determine nitrogen utilization. All carbon and nitrogen sources were tested in a technical triplicate for each biological replicate. Aerobic plates were incubated with a plate seal while anaerobic plates were not. The aerobic plate reader was set to read the plate (λ=595 nm, 37° C., 22 flashes per well, orbital shaking of 100 rpm for 15 s prior to each read) every 15 minutes for 24 hours. The anaerobic plate reader read the plate (λ=595 nm, 37° C., stationary) every 15 minutes for 24 hours.

[7] = system: NDM-1 Enterobacter cloacae; test: Nitrogen utilisation assay; format: cell-based; settings: anaerobic; M9 minimal medium with glucose, 0.1% (w/v) nitrogen source
Experimental: as §2
(§6) Growth of CRE isolates on sole carbon or nitrogen sources was tested by inoculating each CRE isolate into a minimal medium supplemented with the nutrient of interest. First, CRE isolates were passaged from frozen glycerol stocks on Reasoner's 2A agar (R2A) plates. Cells were then suspended in M9 minimal media to a turbidity of 42% using a Turbidimeter (Biolog Inc.), then diluted a further 1 in 6 to inoculate the carbon or nitrogen utilisation assays. M9 minimal media contained the following (at final concentrations): 22 mM KH2PO4, 42 mM Na2HPO4, 9 mM NaCl, 0.49 mM MgSO4·7H2O, 0.09 mM CaCl2), 0.011 mM FeSO4·7H2O. For the carbon assays the M9 minimal medium was also supplemented with 0.1% (w/v) NH4Cl (as the nitrogen source) and the carbon sources were individually tested at 0.5% (w/v) concentration. For the nitrogen assays the M9 minimal medium was also supplemented with 0.5% (w/v) glucose (as the carbon source) and the nitrogen sources were individually tested at 0.1% (w/v) concentration. Cultures were incubated anaerobically and aerobically in a plate reader and OD600 readings were collected every 15 minutes for 24 hours.
(§7) Growth curves were analysed in Python (v3.6.5) using the AMiGA software (Midani, F. S., Collins, J. & Britton, R. A. AMiGA: Software for Automated Analysis of Microbial Growth Assays. mSystems 6, e0050821 (2021)). Growth of each isolate was measured with 6 wells from 2-3 independent experiments. Growth curves were normalised to the no substrate control using the subtraction method. AMiGA performed Gaussian Process regression to test differential growth between the substrate and the no substrate control. The functional difference in the OD (and its credible interval) was also computed between the substrate and the no substrate control.

[8] = system: NDM-1 Escherichia coli; test: Nitrogen utilisation assay; format: cell-based; settings: anaerobic; M9 minimal medium with glucose, 0.1% (w/v) nitrogen source
Experimental: as §2, §6, §7

[9] = system: NDM-1 Klebsiella pneumoniae; test: Nitrogen utilisation assay; format: cell-based; settings: M9 minimal medium with glucose, 0.1% (w/v) nitrogen source
Experimental: as §2, §6, §7

[10] = system: NDM-1 Enterobacter cloacae; test: Carbon utilisation assay; format: cell-based; settings: anaerobic; M9 minimal medium, 0.5% (w/v) carbon source
[11] = system: NDM-1 Escherichia coli; test: Carbon utilisation assay; format: cell-based; settings: M9 minimal medium, 0.5% (w/v) carbon source
[12] = system: NDM-1 Klebsiella pneumoniae; test: Carbon utilisation assay; format: cell-based; settings: anaerobic; M9 minimal medium, 0.5% (w/v) carbon source
[13] = system: vancomycin-resistant E. faecalis; test: VRE nutrient utilization protocol: carbon sources; format: cell-based, Enterococcus faecalis; settings: aerobic; VRE minimal medium
Experimental: as §4, §5

[14] = at average and high concentrations (Table 1)
[15] = at low, average, and high concentrations (Table 1)

Compound: piperacillin/tazobactam [TZP]
- Change in butyrate concentration in faecal cultures [1]: decreased
- Change in abundance of bacterial families relative to antibiotic-naive faecal cultures [2]: decreased the abundance of Bifidobacteriaceae and Bacteroidaceae

Compound: CC(=O)O [acetate]
- E. cloacae growth (OD600) with individual metabolite [3, 14]: inhibited
- E. coli growth (OD600) with individual metabolite [4, 15]: inhibited
- K. pneumoniae growth (OD600) with individual metabolite [5, 14]: inhibited

Compound: CCCC(=O)O [butyrate]
- E. cloacae growth (OD600) with individual metabolite [3, 15]: inhibited
- E. coli growth (OD600) with individual metabolite ([4]; at high concentrations (Table 1)): inhibited
- K. pneumoniae growth (OD600) with individual metabolite [5, 15]: inhibited

Compound: CCO [ethanol]
- E. cloacae growth (OD600) with individual metabolite ([3]; at the high concentration (Table 1)): inhibited
- E. coli growth (OD600) with individual metabolite [4, 14]: inhibited

Compound: CCC(=O)O [propionate]
- E. cloacae growth (OD600) with individual metabolite [3, 14]: inhibited
- E. coli growth (OD600) with individual metabolite [4, 14]: inhibited
- K. pneumoniae growth (OD600) with individual metabolite [5, 14]: inhibited

Compound: CC(=O)N[C@H]1C(O)O[C@H](CO)[C@@H](O)[C@@H]1O (some centres unmarked) [N-acetylglucosamine]
- Use as sole carbon source to support E. faecium growth [6]: could use
- Use as sole nitrogen source to support E. cloacae growth [7]: could use
- Use as sole nitrogen source to support E. coli growth [8]: could use
- Use as sole nitrogen source to support K. pneumoniae growth ([9]; aerobic): not able to use
- Use as sole nitrogen source to support K. pneumoniae growth ([9]; anaerobic): could use
- Use as sole carbon source to support E. cloacae growth [10]: could use
- Use as sole carbon source to support E. coli growth ([11]; anaerobic): could use
- Use as sole carbon source to support K. pneumoniae growth [12]: could use
- Use as sole carbon source to support E. faecalis growth [13]: could use

Compound: CCCCC(=O)O [valerate]
- E. cloacae growth (OD600) with individual metabolite [3, 15]: inhibited
- E. coli growth (OD600) with individual metabolite [4, 14]: inhibited
- K. pneumoniae growth (OD600) with individual metabolite [5, 14]: inhibited

Compound: OC[C@H]1O[C@H](O[C@H]2[C@H](O)[C@@H](O)[C@H](O)O[C@@H]2CO)[C@H](O)[C@@H](O)[C@@H]1O [maltose, D-maltose]
- Use as sole carbon source to support E. faecium growth [6]: could use
- Use as sole carbon source to support E. cloacae growth [10]: could use
- Use as sole carbon source to support E. coli growth ([11]; aerobic): able to grow
- Use as sole carbon source to support K. pneumoniae growth [12]: could use
- Use as sole carbon source to support E. faecalis growth [13]: could use

Compound: CC(C)C(=O)O [isobutyrate]
- E. cloacae growth (OD600) with individual metabolite [3, 14]: inhibited
- K. pneumoniae growth (OD600) with individual metabolite [5, 14]: inhibited
